Patent US7582773B2, “Substituted phenyl indoles” (Wyeth, priority 2003, dated 2009)
pIC50: −log10 of the molar value.

Tests used:
human PAI-1 = human PAI-1 (Homo sapiens, UniProt P05121); experiment: Assay for determining the IC50 of inhibition of PAI-1 (active PAI-1 bound to tPA-coated plate); format: biochemical; conditions: test compound 1-50 μM, pH 7.5
Experimental: Assay for determining the IC50 of inhibition of PAI-1. This assay is based upon the non-SDS dissociable interaction between tPA and active PAI-1. Assay plates are initially coated with human tPA (10 μg/ml). Test compounds are dissolved in DMSO at 10 mM, then diluted with physiologic buffer (pH 7.5) to a final concentration of 1-50 μM. The test compounds are incubated with human PAI-1 (50 ng/ml) for 15 minutes at room temperature. The tPA-coated plate is washed with a solution of 0.05% Tween 20 and 0.1% BSA, then the plate is blocked with a solution of 3% BSA. An aliquot of the test compound/PAI-1 solution is then added to the tPA-coated plate, incubated at room temperature for 1 hour, and washed. Active PAI-1 bound to the plate is assessed by adding an aliquot of a 1:1000 dilution of the 33B8 monoclonal antibody against human PAI-1, and incubating the plate at room temperature for 1 hour (Molecular Innovations, Royal Oak, Mich.). The plate is again washed, and a solution of goat anti-mouse IgG-alkaline phosphatase conjugate is added at a 1:50,000 dilution in goat serum. The plate is incubated 30 minutes at room temperature, washed, and a solution of alkaline phosphatase substrate is added. The plate is incubated 45 minutes at room temperature, and color development is determined at OD405 nm. The quantitation of active PAI-1 bound to tPA at varying concentrations of the test compound is used to determine the IC50. Results are analyzed using a logarithmic best-fit equation. The assay sensitivity is 5 ng/ml of human PAI-1 as determined from a standard curve ranging from 0-100 ng/ml.

[1] = biological target: T1, recombinant human plasminogen activator inhibitor-1 (PAI-1) (Homo sapiens, UniProt P05121); experiment: Screening for PAI-1 inhibition (chromogenic tPA activity assay); format: biochemical
T1 construct: purchased Molecular Innovations, Royal Oak, Mich
T1 sequence (P05121 24-402): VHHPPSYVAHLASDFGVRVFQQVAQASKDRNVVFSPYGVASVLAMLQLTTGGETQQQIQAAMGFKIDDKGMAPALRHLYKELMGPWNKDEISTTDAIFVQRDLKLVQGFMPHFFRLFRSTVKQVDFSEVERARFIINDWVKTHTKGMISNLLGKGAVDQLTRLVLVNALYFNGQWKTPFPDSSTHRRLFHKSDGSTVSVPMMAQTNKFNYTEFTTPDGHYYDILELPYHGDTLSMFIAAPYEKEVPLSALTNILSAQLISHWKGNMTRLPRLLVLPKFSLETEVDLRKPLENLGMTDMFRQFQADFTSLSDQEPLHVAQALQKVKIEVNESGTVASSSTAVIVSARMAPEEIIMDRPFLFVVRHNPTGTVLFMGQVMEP
Experimental: Screening for PAI-1 inhibition. Test compounds are dissolved in DMSO at a final concentration of 10 mM, then diluted 100× in physiologic buffer. The inhibitory assay is initiated by the addition of the test compound (1-100 μM final concentration, maximum DMSO concentration of 0.2%) in a pH 6.6 buffer containing 140 nM recombinant human plasminogen activator inhibitor-1 (PAI-1; Molecular Innovations, Royal Oak, Mich.). Following a 1 hour incubation at room temperature, 70 nM of recombinant human tissue plasminogen activator (tPA) is added, and the combination of the test compound, PAI-1 and tPA is incubated for an additional 30 minutes. Following the second incubation, Spectrozyme-tPA (American Diagnostica, Greenwich, Conn.), a chromogenic substrate for tPA, is added and absorbance read at 405 nm at 0 and 60 minutes. Relative PAI-1 inhibition is equal to the residual tPA activity in the presence of the test compounds and PAI-1. Control treatments include the complete inhibition of tPA by PAI-1 at the molar ratio employed (2:1), and the absence of any effect of the test compound on tPA alone.

human PAI-1, sequence (P05121 24-402): as above

Row | SMILES | pIC50 (human PAI-1) | melting point | inhibition at 25 µM [1]
1 | CCCCCc1c(-c2ccccc2)n(C)c2ccc(-c3ccc(OCc4nnn[nH]4)cc3)cc12 [1-Methyl-3-pentyl-2-phenyl-5-[4-(1H-tetrazol-5-ylmethoxy)-phenyl]-1H-indole] | 4.44 |  | 
2 | c1ccc(Cn2c3c(c4cc(-c5ccc(OCc6nnn[nH]6)cc5)ccc42)CCCC3)cc1 [9-Benzyl-6-[4-(1H-tetrazol-5-ylmethoxy)-phenyl]-2,3,4,9-tetrahydro-1H-carbazole] | 4.56 |  | 
3 | O=C(O)COc1ccc(-c2ccc3c(c2)c2c(n3Cc3ccccc3)CCCC2)cc1 [[4-(9-Benzyl-6,7,8,9-tetrahydro-5H-carbazol-3-yl)-phenoxy]-acetic acid] | 4.45 | 176 to 180 °C | 
4 | Cc1c(-c2ccccc2)n(Cc2ccccc2)c2cc(-c3ccc(OCC(=O)O)cc3)ccc12 [[4-(1-Benzyl-3-methyl-2-phenyl-1H-indol-6-yl)-phenoxy]-acetic acid] |  | 202 to 205 °C | 27%
5 | Cc1c(C)n(Cc2ccccc2)c2ccc(-c3ccc(OCc4nnn[nH]4)cc3)cc12 [1-Benzyl-2,3-dimethyl-5-[4-(1H-tetrazol-5-ylmethoxy)-phenyl]-1H-indole] | 4.55 |  | 
6 | Cc1c(Cc2ccccc2)c2cc(-c3ccc(OCC(=O)O)cc3)ccc2n1Cc1ccccc1 [[4-(1,3-Dibenzyl-2-methyl-1H-indol-5-yl)-phenoxy]-acetic acid] | 4.60 | 180 to 183 °C | 
7 | CCCCCc1c(-c2ccccc2)n(Cc2ccccc2)c2ccc(-c3ccc(OCc4nnn[nH]4)cc3)cc12 [1-Benzyl-3-pentyl-2-phenyl-5-[4-(1H-tetrazol-5-ylmethoxy)-phenyl]-1H-indole] | 4.79 | 165 to 168 °C | 
8 | Cn1c(-c2ccccc2)c(Cc2ccccc2)c2cc(-c3ccc(OCC(=O)O)cc3)ccc21 [[4-(3-Benzyl-1-methyl-2-phenyl-1H-indol-5-yl)-phenoxy]-acetic acid] |  | 179 to 181 °C | 48%
9 | CCCCCc1c(-c2ccccc2)n(C)c2ccc(-c3ccc(OCC(=O)O)cc3)cc12 [[4-(1-Methyl-3-pentyl-2-phenyl-1H-indol-5-yl)-phenoxy]-acetic acid] |  | 146 to 148 °C | 68%
10 | CCCCCc1c(-c2ccccc2)n(Cc2ccccc2)c2ccc(-c3ccc(OCC(=O)O)cc3)cc12 [[4-(1-Benzyl-3-pentyl-2-phenyl-1H-indol-5-yl)-phenoxy]-acetic acid] | 4.81 | 141 to 143 °C | 
11 | c1ccc(Cc2c(-c3ccccc3)n(Cc3ccccc3)c3ccc(-c4ccc(OCc5nnn[nH]5)cc4)cc23)cc1 [1,3-Dibenzyl-2-phenyl-5-[4-(1H-tetrazol-5-ylmethoxy)-phenyl]-1H-indole] |  |  | 51%
12 | Cc1c(Cc2ccccc2)c2cc(-c3ccc(OCC(=O)O)cc3)ccc2n1C [[4-(3-Benzyl-1,2-dimethyl-1H-indol-5-yl)-phenoxy]-acetic acid] | 4.42 | 204 to 207 °C | 
13 | O=C(O)COc1ccc(-c2ccc3c(c2)c(Cc2ccccc2)c(-c2ccccc2)n3Cc2ccccc2)cc1 [[4-(1,3-Dibenzyl-2-phenyl-1H-indol-5-yl)-phenoxy]-acetic acid] | 4.92 | 153 to 155 °C | 
14 | Cc1c(C)n(Cc2ccccc2)c2ccc(-c3ccc(OCC(=O)O)cc3)cc12 [[4-(1-Benzyl-2,3-dimethyl-1H-indol-5-yl)-phenoxy]-acetic acid] | 4.29 | 203 to 206 °C | 
15 | Cc1c(-c2ccccc2)n(Cc2ccccc2)c2ccc(-c3ccc(OCC(=O)O)cc3)cc12 [[4-(1-Benzyl-3-methyl-2-phenyl-1H-indol-5-yl)-phenoxy]-acetic acid] | 4.74 | 173.5 to 175 °C | 
16 | Cc1c(-c2ccccc2)n(C)c2cccc(-c3ccc(OCC(=O)O)cc3)c12 [[4-(1,3-Dimethyl-2-phenyl-1H-indol-4-yl)-phenoxy]-acetic acid] | 4.47 | 177 to 180 °C | 
17 | Cn1c2c(c3cc(-c4ccc(OCc5nnn[nH]5)cc4)ccc31)CCCC2 [9-Methyl-6-[4-(1H-tetrazol-5-ylmethoxy)-phenyl]-2,3,4,9-tetrahydro-1H-carbazole] | 5.21 |  | 
18 | Cn1c(-c2ccccc2)c(Cc2ccccc2)c2cc(-c3ccc(OCc4nnn[nH]4)cc3)ccc21 [3-Benzyl-1-methyl-2-phenyl-5-[4-(1H-tetrazol-5-ylmethoxy)-phenyl]-1H-indole] |  |  | 56%
19 | Cc1c(-c2ccccc2)n(C)c2cccc(-c3ccc(OCc4nnn[nH]4)cc3)c12 [1,3-Dimethyl-2-phenyl-4-[4-(1H-tetrazol-5-ylmethoxy)-phenyl]-1H-indole] | 4.48 |  | 
20 | Cc1c(-c2ccccc2)n(Cc2ccccc2)c2ccc(-c3ccc(OCc4nnn[nH]4)cc3)cc12 [1-Benzyl-3-methyl-2-phenyl-5-[4-(1H-tetrazol-5-ylmethoxy)-phenyl]-1H-indole] | 5.00 |  | 
21 | Cc1c(Cc2ccccc2)c2cc(-c3ccc(OCc4nnn[nH]4)cc3)ccc2n1Cc1ccccc1 [1,3-Dibenzyl-2-methyl-5-[4-(1H-tetrazol-5-ylmethoxy)-phenyl]-1H-indole] | 4.32 | 190 to 192 °C | 
22 | Cc1c(-c2ccccc2)n(C)c2ccc(-c3ccc(OCc4nnn[nH]4)cc3)cc12 [1,3-Dimethyl-2-phenyl-5-[4-(1H-tetrazol-5-ylmethoxy)-phenyl]-1H-indole] | 4.78 |  | 
23 | Cc1c(-c2ccccc2)n(Cc2ccccc2)c2cccc(-c3ccc(OCc4nnn[nH]4)cc3)c12 [1-Benzyl-3-methyl-2-phenyl-4-[4-(1H-tetrazol-5-ylmethoxy)-phenyl]-1H-indole] | 4.59 | 174 to 177 °C | 
24 | Cc1c(-c2ccccc2)n(Cc2ccccc2)c2cccc(-c3ccc(OCC(=O)O)cc3)c12 [[4-(1-Benzyl-3-methyl-2-phenyl-1H-indol-4-yl)-phenoxy]-acetic acid] | 4.64 | 82 to 86 °C | 
25 | Cc1c(Cc2ccccc2)c2cc(-c3ccc(OCc4nnn[nH]4)cc3)ccc2n1C [3-Benzyl-1,2-dimethyl-5-[4-(1H-tetrazol-5-ylmethoxy)-phenyl]-1H-indole] | 4.36 |  | 
26 | Cc1c(-c2ccccc2)n(Cc2ccccc2)c2cc(-c3ccc(OCc4nnn[nH]4)cc3)ccc12 [1-Benzyl-3-methyl-2-phenyl-6-[4-(1H-tetrazol-5-ylmethoxy)-phenyl]-1H-indole] | 4.43 |  | 
